What was measured:
[1] = tested on: Mean Arterial Pressure (MAP); assay: Phenylephrine-induced MAP in an anesthetized canine model; format: in vivo; conditions: anesthetized dog
Experimental: (§1) In-Vivo Evaluation of α1-Adrenergic Antagonists on Prostatic Intraurethral Pressure (IUP) and Mean Arterial Pressure (MAP) in an Anesthetized Canine Model
(§2) An anesthetized dog was fitted with a balloon catheter for the measurement of changes in prostatic IUP and with a non-invasive blood pressure (NIBP) cuff for determination of MAP.
(§3) The pressor effects of challenge doses (i.v.) of the α-adrenergic agonist phenylephrine upon IUP and MAP were measured before and at various time points after a single dose (i.v.) of an α-adrenergic antagonist test compound (Compound 69) of the present invention.
(§4) Each treatment group was dosed with a test compound (0.01, 0.03, 0.1 and 0.5 mg/kg) in four separate experiments. The first challenge dose of phenylephrine was administered 30 mins prior to the test compound dose and at 30 min intervals thereafter for a total time period of 5 hrs (i.e at time minus 30 mins, time plus 30 mins, 1 hr, 1.5 hrs, 2 hrs, 2.5 hrs, 3 hrs, 3.5 hrs, 4 hrs, 4.5 hrs and 5 hrs).
(§5) The animals were fasted overnight, anesthetized with propofol (4 mg/kg IV or to effect), then intubated and anesthesia maintained using inhalation isoflurane (1-2% in oxygen at a flow rate of 2 l/min) with animals breathing spontaneously.
Blood pressure was measured non-invasively using a Critikon 8100 monitor. An infant blood pressure cuff was placed on a forelimb. Measurements were made automatically at 1-minute intervals during recording periods. […] Care was taken to accurately correlate the time of the MAP readings with the time of the phenylephrine dose. Recording periods typically lasted from 5 minutes before phenylephrine administration to 10 minutes after. The monitor was turned off between recording periods to allow the arterial blood vessels of the forelimb to recover from repeated cuff inflations.
Because of the variability of the MAP value, several values recorded during a five minute “control” period prior to the phenylephrine challenge dose were averaged to establish a mean baseline value for measuring the phenylephrine-induced change in MAP.
MAP readings also varied during the response to the phenylephrine challenge. A visual peak MAP value, seen on the monitor at about 3 minutes after the challenge dose, was recorded and used to calculate the maximum phenylephrine induced change in MAP. Additionally, MAP values were recorded at one minute intervals and curve fitted to estimate a maximum MAP value. The curve fitted maximum value was used to confirm the visual maximum value.
(§6) A test compound was administered via the cephalic vein using an appropriately sized IV catheter (Surflo, Terumo Medical Corporation or equivalent).
(§7) Prior to test compound administration, IUP and MAP responses to an individualized dose of phenylephrine (either 10 or 15 μg/kg IV, depending on the individual animal's response) was repeated 2 to 3 times to establish a baseline response. After test compound administration, the individualized phenylephrine dose was administered to each animal at 30 minute intervals over a period of 5 hours.
(§8) Data for phenylephrine-induced changes in IUP and MAP were tabulated for each treatment group and each experiment. A mean value and standard deviation for the phenylephrine-induced changes to the effect of a test compound on IUP and MAP at each dose was calculated and tabulated for each treatment group over the length of the 5.5 hour study.

[2] = tested on: Prostatic Intraurethral Pressure (IUP); assay: Phenylephrine-induced prostatic IUP in an anesthetized canine model; format: in vivo; conditions: anesthetized dog
Experimental: as §1, §2, §3, §4, §5
A 7F Fogarty balloon catheter lubricated with a water-soluble jelly was inserted into the urethra and advanced into the bladder (approximately 40 cm). The balloon was inflated with approximately water (0.2 mL). The catheter was slowly withdrawn from the bladder to just past the point of first resistance from the bladder neck in order to position the balloon within the prostatic urethra. The balloon was then inflated to approximately 0.7 mL. The balloon port of the catheter was connected to a Gould Statham pressure transducer, the output of which was connected to the pressure input of a Physio Control VSM1 Patient Monitor.
as §6, §7, §8

[3] = 0.01 mg/kg i.v., 0 hrs (baseline)
[4] = 0.01 mg/kg i.v., 0.5 hrs after dose
[5] = 0.01 mg/kg i.v., 1 hrs after dose
[6] = 0.01 mg/kg i.v., 2 hrs after dose
[7] = 0.01 mg/kg i.v., 3 hrs after dose
[8] = 0.01 mg/kg i.v., 4 hrs after dose
[9] = 0.01 mg/kg i.v., 5 hrs after dose
[10] = 0.03 mg/kg i.v., 0 hrs (baseline)
[11] = 0.03 mg/kg i.v., 0.5 hrs after dose
[12] = 0.03 mg/kg i.v., 1 hrs after dose
[13] = 0.03 mg/kg i.v., 1.5 hrs after dose
[14] = 0.03 mg/kg i.v., 2 hrs after dose
[15] = 0.03 mg/kg i.v., 2.5 hrs after dose
[16] = 0.03 mg/kg i.v., 3 hrs after dose
[17] = 0.03 mg/kg i.v., 3.5 hrs after dose
[18] = 0.03 mg/kg i.v., 4 hrs after dose
[19] = 0.03 mg/kg i.v., 4.5 hrs after dose
[20] = 0.03 mg/kg i.v., 5 hrs after dose
[21] = 0.1 mg/kg i.v., 0 hrs (baseline)
[22] = 0.1 mg/kg i.v., 0.5 hrs after dose
[23] = 0.1 mg/kg i.v., 1 hrs after dose
[24] = 0.1 mg/kg i.v., 1.5 hrs after dose
[25] = 0.1 mg/kg i.v., 2 hrs after dose
[26] = 0.1 mg/kg i.v., 2.5 hrs after dose
[27] = 0.1 mg/kg i.v., 3 hrs after dose
[28] = 0.1 mg/kg i.v., 3.5 hrs after dose
[29] = 0.1 mg/kg i.v., 4 hrs after dose
[30] = 0.1 mg/kg i.v., 4.5 hrs after dose
[31] = 0.1 mg/kg i.v., 5 hrs after dose
[32] = 0.5 mg/kg i.v., 0 hrs (baseline)
[33] = 0.5 mg/kg i.v., 0.5 hrs after dose
[34] = 0.5 mg/kg i.v., 1 hrs after dose
[35] = 0.5 mg/kg i.v., 1.5 hrs after dose
[36] = 0.5 mg/kg i.v., 2 hrs after dose
[37] = 0.5 mg/kg i.v., 2.5 hrs after dose
[38] = 0.5 mg/kg i.v., 3 hrs after dose
[39] = 0.5 mg/kg i.v., 3.5 hrs after dose
[40] = 0.5 mg/kg i.v., 4 hrs after dose
[41] = 0.5 mg/kg i.v., 4.5 hrs after dose
[42] = 0.5 mg/kg i.v., 5 hrs after dose

## COc1ccc(S(=O)(=O)N[C@H]2CC[C@@H](N3CCN(c4ccccc4OCC(F)(F)F)CC3)CC2)cc1OC [Cpd 69, 3,4-Dimethoxy-N-cis-(4-{4-[2-(2,2,2-trifluoro-ethoxy)-phenyl]-piperazin-1-yl}-cyclohexyl)-benzenesulfonamide]
[1]; [3]
  MAP, normalized % of baseline (mean): 100%
[1]; [4]
  MAP, normalized % of baseline (mean): 88.2%
[1]; [5]
  MAP, normalized % of baseline (mean): 68.9%
[1]; [6]
  MAP, normalized % of baseline (mean): 83.1%
[1]; [7]
  MAP, normalized % of baseline (mean): 88.0%
[1]; [8]
  MAP, normalized % of baseline (mean): 82.0%
[1]; [9]
  MAP, normalized % of baseline (mean): 91.1%
[1]; [10]
  MAP, normalized % of baseline (mean): 100%
[1]; [11]
  MAP, normalized % of baseline (mean): 39.9%
[1]; [12]
  MAP, normalized % of baseline (mean): 40.9%
[1]; [13]
  MAP, normalized % of baseline (mean): 44.1%
[1]; [14]
  MAP, normalized % of baseline (mean): 61.0%
[1]; [15]
  MAP, normalized % of baseline (mean): 59.4%
[1]; [16]
  MAP, normalized % of baseline (mean): 59.2%
[1]; [17]
  MAP, normalized % of baseline (mean): 59.8%
[1]; [18]
  MAP, normalized % of baseline (mean): 58.4%
[1]; [19]
  MAP, normalized % of baseline (mean): 71.1%
[1]; [20]
  MAP, normalized % of baseline (mean): 90.3%
[1]; [21]
  MAP, normalized % of baseline (mean): 100%
[1]; [22]
  MAP, normalized % of baseline (mean): 45.5%
[1]; [23]
  MAP, normalized % of baseline (mean): 47.4%
[1]; [24]
  MAP, normalized % of baseline (mean): 35.0%
[1]; [25]
  MAP, normalized % of baseline (mean): 44.0%
[1]; [26]
  MAP, normalized % of baseline (mean): 54.0%
[1]; [27]
  MAP, normalized % of baseline (mean): 51.3%
[1]; [28]
  MAP, normalized % of baseline (mean): 56.4%
[1]; [29]
  MAP, normalized % of baseline (mean): 47.0%
[1]; [30]
  MAP, normalized % of baseline (mean): 73.3%
[1]; [31]
  MAP, normalized % of baseline (mean): 84.3%
[1]; [32]
  MAP, normalized % of baseline (mean): 100%
[1]; [33]
  MAP, normalized % of baseline (mean): 27.6%
[1]; [34]
  MAP, normalized % of baseline (mean): 18.4%
[1]; [35]
  MAP, normalized % of baseline (mean): 16.0%
[1]; [36]
  MAP, normalized % of baseline (mean): 18.3%
[1]; [37]
  MAP, normalized % of baseline (mean): 19.4%
[1]; [38]
  MAP, normalized % of baseline (mean): 23.8%
[1]; [39]
  MAP, normalized % of baseline (mean): 19.2%
[1]; [40]
  MAP, normalized % of baseline (mean): 32.3%
[1]; [41]
  MAP, normalized % of baseline (mean): 32.1%
[1]; [42]
  MAP, normalized % of baseline (mean): 29.4%
[2]; [3]
  IUP, normalized % of baseline (mean): 100%
[2]; [4]
  IUP, normalized % of baseline (mean): 78.1%
[2]; [5]
  IUP, normalized % of baseline (mean): 81.9%
[2]; [6]
  IUP, normalized % of baseline (mean): 83.6%
[2]; [7]
  IUP, normalized % of baseline (mean): 83.3%
[2]; [8]
  IUP, normalized % of baseline (mean): 83.0%
[2]; [9]
  IUP, normalized % of baseline (mean): 84.5%
[2]; [10]
  IUP, normalized % of baseline (mean): 100%
[2]; [11]
  IUP, normalized % of baseline (mean): 64.8%
[2]; [12]
  IUP, normalized % of baseline (mean): 64.8%
[2]; [13]
  IUP, normalized % of baseline (mean): 70.8%
[2]; [14]
  IUP, normalized % of baseline (mean): 71.1%
[2]; [15]
  IUP, normalized % of baseline (mean): 79.1%
[2]; [16]
  IUP, normalized % of baseline (mean): 81.1%
[2]; [17]
  IUP, normalized % of baseline (mean): 81.6%
[2]; [18]
  IUP, normalized % of baseline (mean): 84.8%
[2]; [19]
  IUP, normalized % of baseline (mean): 83.5%
[2]; [20]
  IUP, normalized % of baseline (mean): 83.8%
[2]; [21]
  IUP, normalized % of baseline (mean): 100%
[2]; [22]
  IUP, normalized % of baseline (mean): 39.5%
[2]; [23]
  IUP, normalized % of baseline (mean): 48.4%
[2]; [24]
  IUP, normalized % of baseline (mean): 56.3%
[2]; [25]
  IUP, normalized % of baseline (mean): 61.3%
[2]; [26]
  IUP, normalized % of baseline (mean): 67.1%
[2]; [27]
  IUP, normalized % of baseline (mean): 69.9%
[2]; [28]
  IUP, normalized % of baseline (mean): 75.2%
[2]; [29]
  IUP, normalized % of baseline (mean): 78.8%
[2]; [30]
  IUP, normalized % of baseline (mean): 74.2%
[2]; [31]
  IUP, normalized % of baseline (mean): 77.3%
[2]; [32]
  IUP, normalized % of baseline (mean): 100%
[2]; [33]
  IUP, normalized % of baseline (mean): 17.4%
[2]; [34]
  IUP, normalized % of baseline (mean): 16.1%
[2]; [35]
  IUP, normalized % of baseline (mean): 27.0%
[2]; [36]
  IUP, normalized % of baseline (mean): 29.1%
[2]; [37]
  IUP, normalized % of baseline (mean): 36.1%
[2]; [38]
  IUP, normalized % of baseline (mean): 38.8%
[2]; [39]
  IUP, normalized % of baseline (mean): 45.5%
[2]; [40]
  IUP, normalized % of baseline (mean): 46.4%
[2]; [41]
  IUP, normalized % of baseline (mean): 48.0%
[2]; [42]
  IUP, normalized % of baseline (mean): 54.4%
